According to ChEMBL document CHEMBL1157443, “Synthesis and in vitro anti-hepatitis B virus activities of 4-aryl-6-chloro-quinolin-2-one and 5-aryl-7-chloro-1,4-benzodiazepine derivatives” (Bioorg Med Chem Lett, 2008):

Columns and labels:
[1] = Cytotoxicity against human Hep G2.2.15 cells; type: cell-based, HepG2 2.2.15
[2] = Selectivity index, ratio of CC50 for human Hep G2.2.15 cells to IC50 for HBV surface antigen secretion; type: functional
[3] = Selectivity index, ratio of CC50 for human Hep G2.2.15 cells to IC50 for HBV e antigen secretion; type: functional
Hepatitis B virus [4] = test: Antiviral activity against hepatitis B virus infected Hep G2.2.15 cells assessed as inhibition of HBsAg secretion; type: functional, organism-based; settings: HepG2 2.2.15
Hepatitis B virus [5] = test: Antiviral activity against hepatitis B virus infected Hep G2.2.15 cells assessed as inhibition of HBeAg secretion; type: functional, organism-based; settings: HepG2 2.2.15

## Nc1ccn([C@@H]2CS[C@H](CO)O2)c(=O)n1 [LAMIVUDINE]
[1]
  CC50: 30000 µM
[2]
  Ratio CC50/IC50: 2.6
[3]
  Ratio CC50/IC50: 1.2

## CC(=O)Nc1c(-c2ccccc2Cl)c2cc(Cl)ccc2[nH]c1=O
[1]
  CC50: 208 µM
Hepatitis B virus [4]
  IC50: 129 µM
Hepatitis B virus [5]
  IC50: 80 µM
[2]
  Ratio CC50/IC50: 1.6
[3]
  Ratio CC50/IC50: 2.6

## O=c1[nH]c2ccc(Cl)cc2c(-c2ccccc2F)c1CCO
[1]
  CC50: > 2990 µM
Hepatitis B virus [4]
  IC50: 187 µM
Hepatitis B virus [5]
  IC50: 545 µM
[2]
  Ratio CC50/IC50: >16
[3]
  Ratio CC50/IC50: >5.5

## Nc1c(-c2ccccc2Cl)c2cc(Cl)ccc2[nH]c1=O
[1]
  CC50: 341 µM
Hepatitis B virus [4]
  IC50: 341 µM
Hepatitis B virus [5]
  IC50: > 5470 µM
[2]
  Ratio CC50/IC50: 1
[3]
  Ratio CC50/IC50: <1

## Nc1c(-c2ccccc2)c2cc(Cl)ccc2[nH]c1=O
[1]
  CC50: 399 µM
Hepatitis B virus [4]
  IC50: 67 µM
Hepatitis B virus [5]
  IC50: > 3990 µM
[2]
  Ratio CC50/IC50: 6
[3]
  Ratio CC50/IC50: <1

## O=c1cc(-c2ccccc2F)c2cc(Cl)ccc2[nH]1
[1]
  CC50: > 5460 µM
Hepatitis B virus [4]
  IC50: 2840 µM
Hepatitis B virus [5]
  IC50: 2220 µM
[2]
  Ratio CC50/IC50: >1.9
[3]
  Ratio CC50/IC50: >2.4

## O=C1CN2OC2(c2ccccc2Cl)c2cc(Cl)ccc2N1 (stereo not given)
[1]
  CC50: 302 µM
Hepatitis B virus [4]
  IC50: 355 µM
Hepatitis B virus [5]
  IC50: 4490 µM
[2]
  Ratio CC50/IC50: <1
[3]
  Ratio CC50/IC50: <1

## CC(=O)Nc1c(-c2ccccc2F)c2cc(Cl)ccc2[nH]c1=O
[1]
  CC50: 44 µM
Hepatitis B virus [4]
  IC50: 141 µM
Hepatitis B virus [5]
  IC50: 79 µM
[2]
  Ratio CC50/IC50: <1
[3]
  Ratio CC50/IC50: <1

## O=C1CN=C(c2ccccc2F)c2cc(Cl)ccc2N1
[1]
  CC50: 183 µM
Hepatitis B virus [4]
  IC50: 294 µM
Hepatitis B virus [5]
  IC50: 5360 µM
[2]
  Ratio CC50/IC50: <1
[3]
  Ratio CC50/IC50: <1

## O=C1CN=C(c2ccccc2Cl)c2cc(Cl)ccc2N1 [DELORAZEPAM]
[1]
  CC50: 76 µM
Hepatitis B virus [4]
  IC50: 76 µM
Hepatitis B virus [5]
  IC50: 4080 µM
[2]
  Ratio CC50/IC50: <1
[3]
  Ratio CC50/IC50: <1

## O=c1[nH]c2ccc(Cl)cc2c(-c2ccccc2)c1CCO
[1]
  CC50: > 4910 µM
Hepatitis B virus [4]
  IC50: 300 µM
Hepatitis B virus [5]
  IC50: 950 µM
[2]
  Ratio CC50/IC50: >16
[3]
  Ratio CC50/IC50: >5.2

## O=c1cc(-c2ccccc2)c2cc(Cl)ccc2[nH]1
[1]
  CC50: 1250 µM
Hepatitis B virus [4]
  IC50: 485 µM
Hepatitis B virus [5]
  IC50: > 4140 µM
[2]
  Ratio CC50/IC50: 2.6
[3]
  Ratio CC50/IC50: <1

## O=C1CN2OC2(c2ccccc2F)c2cc(Cl)ccc2N1 (stereo not given)
[1]
  CC50: 346 µM
Hepatitis B virus [4]
  IC50: 195 µM
Hepatitis B virus [5]
  IC50: > 3260 µM
[2]
  Ratio CC50/IC50: 1.8
[3]
  Ratio CC50/IC50: <1

## O=C1CN=C(c2ccccc2)c2cc(Cl)ccc2N1 [NORDAZEPAM]
Hepatitis B virus [4]
  IC50: 255 µM
Hepatitis B virus [5]
  IC50: 835 µM

## O=c1cc(-c2ccccc2Cl)c2cc(Cl)ccc2[nH]1
[1]
  CC50: 6000 µM
Hepatitis B virus [4]
  IC50: 752 µM
Hepatitis B virus [5]
  IC50: > 6000 µM
[2]
  Ratio CC50/IC50: 8
[3]
  Ratio CC50/IC50: <1

## CC(=O)Nc1c(-c2ccccc2)c2cc(Cl)ccc2[nH]c1=O
[1]
  CC50: 239 µM
Hepatitis B virus [4]
  IC50: 208 µM
Hepatitis B virus [5]
  IC50: 1870 µM
[2]
  Ratio CC50/IC50: 1.1
[3]
  Ratio CC50/IC50: <1

## CC(=O)OC1N=C(c2ccccc2)c2cc(Cl)ccc2NC1=O (stereo not given)
[1]
  CC50: 678 µM
Hepatitis B virus [4]
  IC50: 292 µM
Hepatitis B virus [5]
  IC50: > 4260 µM
[2]
  Ratio CC50/IC50: 2.3
[3]
  Ratio CC50/IC50: <1

## CC(=O)OC1N=C(c2ccccc2Cl)c2cc(Cl)ccc2NC1=O (stereo not given)
[1]
  CC50: 154 µM
Hepatitis B virus [4]
  IC50: 167 µM
Hepatitis B virus [5]
  IC50: 1940 µM
[2]
  Ratio CC50/IC50: <1
[3]
  Ratio CC50/IC50: <1

## Nc1c(-c2ccccc2F)c2cc(Cl)ccc2[nH]c1=O
[1]
  CC50: 767 µM
Hepatitis B virus [4]
  IC50: 56 µM
Hepatitis B virus [5]
  IC50: > 3610 µM
[2]
  Ratio CC50/IC50: 14
[3]
  Ratio CC50/IC50: <1

## O=C1CN2OC2(c2ccccc2)c2cc(Cl)ccc2N1 (stereo not given)
[1]
  CC50: 946 µM
Hepatitis B virus [4]
  IC50: 728 µM
Hepatitis B virus [5]
  IC50: > 3280 µM
[2]
  Ratio CC50/IC50: 1.3
[3]
  Ratio CC50/IC50: <1

## O=c1[nH]c2ccc(Cl)cc2c(-c2ccccc2Cl)c1CCO
[1]
  CC50: 1720 µM
Hepatitis B virus [4]
  IC50: 74 µM
Hepatitis B virus [5]
  IC50: 449 µM
[2]
  Ratio CC50/IC50: 23
[3]
  Ratio CC50/IC50: 3.4

## CC(=O)OC1N=C(c2ccccc2F)c2cc(Cl)ccc2NC1=O (stereo not given)
[1]
  CC50: 344 µM
Hepatitis B virus [4]
  IC50: 160 µM
Hepatitis B virus [5]
  IC50: 1220 µM
[2]
  Ratio CC50/IC50: 2.2
[3]
  Ratio CC50/IC50: <1
